Data reported in a melting point compilation (Tetko et al.; mined from patent text by program, amines drawn as free bases though some values may be those of a salt).

First: CCOC(=O)COc1ccc(SCc2ccc3sc(-c4ccc(C(F)(F)F)cc4)nc3c2)cc1C
Second: CCOC(=O)c1cc(Cl)nc(SCc2ccc3ccccc3c2)n1
The melting point of the first is higher: 138 to 140 °C for the first, 95 to 96 °C for the second.

First: OC1CSC(Oc2ccc(-c3ccc(F)nc3)nc2Cl)C(O)C1O (stereo not drawn)
Second: CC(=O)OC1CSC(Oc2cncc(-c3ccc(C#N)nc3)c2)C(OC(C)=O)C1OC(C)=O (stereo not drawn)
The melting point of the first is higher: 199 °C for the first, 142 to 151 °C for the second.

Compared with `CC1(C)CC(=O)C(SCc2ccc([N+](=O)[O-])cc2)=C(O)C1`, `O=C1CCc2cc(Oc3ccc(F)cc3F)c([N+](=O)[O-])cc21` is higher in melting point: 140 to 142 °C for the first, 145 °C for the second.

First: O=C1CC(C(=O)O)CC(O)=C1N=Nc1ccccc1 (stereo not drawn)
Second: O=S(=O)(c1ccccc1)c1ncc(Br)cn1
The melting point of the first is higher: 218 °C for the first, 103 °C for the second.

Compared with `COC(=O)NS(=O)(=O)c1cccc([N+](=O)[O-])c1`, `CS(=O)(=O)c1ccc(C(=O)O)c(F)c1` is higher in melting point: 121 to 123 °C for the first, 187 to 188 °C for the second.

First: CNc1nc2ccccc2n1CCOS(C)(=O)=O
Second: Cn1c2ccccc2c(=O)n2nc(C(N)=O)cc12
The melting point of the first is lower: 48 to 50 °C for the first, 327 to 330 °C for the second.

Going from `COc1ccc(CN2C(=O)C(C)(c3ccc(F)cc3Cl)c3cc(Cl)ccc32)c(OC)c1` (stereo not drawn) to `O=C1c2ccc(Nc3ccc(F)cc3F)cc2CCc2cc(OCCCO)ccc21`, the melting point falls from 166 °C to 154 °C.

Compared with `C#CC[C@H](c1nc2cc(Cl)ccc2c(=O)n1Nc1ccccc1)N(CCCN)C(=O)c1cc2ccccc2s1`, `O=C(Cc1c(-c2ccccc2)c2cc(CSc3ccccn3)c(Cl)cc2oc1=O)Nc1ccc(Cl)cc1C(F)(F)F` is higher in melting point: 103 to 106 °C for the first, 213 to 215 °C for the second.

Compared with `CCCNC(=O)c1cccc(-c2cc(-c3ccccc3O)nc(NC(=O)c3cccs3)c2C#N)c1`, `Cc1oc(-c2ccccc2)nc1COc1ccc(C(=O)c2ccccc2)c(O)c1` is lower in melting point: 245 to 246 °C for the first, 115 to 116 °C for the second.

First: Cc1oc2c(C)c(C)c(NCc3ccc(F)cc3)c(C)c2c1-c1ccccc1
Second: Cc1oc(-c2ccc3ccccc3c2)nc1COc1ccc(CCCC#N)cc1
The melting point of the first is lower: 135 to 136 °C for the first, 149 to 151 °C for the second.

Compared with `COC(=O)[C@H](Cc1cc(Cl)c(OCc2cccc3nc(-c4ccccc4)oc23)c(Cl)c1)NC(=O)C(F)(F)F`, `CC(C)=C(C(=O)O)c1cc(C(C)C)c(O)c2c(Cc3ccccc3)cccc12` is higher in melting point: 168 to 170 °C for the first, 264 to 266 °C for the second.

First: O=C(O)c1ccc2c(c1)Sc1ccc(F)cc1C(=O)C2
Second: O=C(O)/C=C/c1ccnc(-c2nc(=O)c3ccccc3s2)c1
The melting point of the first is higher: 289 to 291 °C for the first, 284 to 285 °C for the second.

First: CC(C)(C)n1nnc(N)n1
Second: Cc1nn(C(C)(C)C)c(N)c1C#N
The melting point of the first is lower: 114 to 115 °C for the first, 156 to 157 °C for the second.

First: COc1nc(N2CCCCC2)nc(OC)c1O
Second: Clc1ccc2nc(N3CCCCC3)nc(N3CCCCC3)c2c1
The melting point of the first is lower: 109 °C for the first, 115 to 118 °C for the second.

Compared with `CCCCCC1(C)OCc2c1cnc(C)c2O` (stereo not drawn), `CCCc1c(O)ccc2c(=O)cc(/C=C/C(=O)OCC)oc12` is lower in melting point: 222 °C for the first, 203 to 204 °C for the second.

First: COc1cc(NC(=O)C(C)(C)C)ccc1C(=O)N(C)C
Second: Cc1c(C)c2c(c(C)c1NC(=O)C(C)(C)C)C(c1ccc(C(C)C)cc1)CO2 (stereo not drawn)
The melting point of the first is lower: 143 to 144 °C for the first, 177 to 178 °C for the second.

First: CC(=O)Nc1c(C#N)cnn1-c1c(Cl)cc(C(F)(F)F)c(Cl)c1Cl
Second: Cn1c(SC(Cl)=C(Cl)C#N)nnc1C(F)(F)F
The melting point of the first is higher: 177 to 178 °C for the first, 90 to 94 °C for the second.

First: COC(=O)c1cccc(NC(N)=NC#N)c1
Second: COC(C)(CC(=O)Nc1cccc(OC(=O)NC2CCCCC2)c1)OC
The melting point of the first is higher: 203 to 204 °C for the first, 163 °C for the second.

Compared with `COc1cc2occ(-c3ccccc3)c(=O)c2c(Cl)c1Cl`, `COc1ccc(C(=O)c2ccccc2F)c(Cl)c1Cl` is lower in melting point: 216 to 218 °C for the first, 74 to 77 °C for the second.

First: O=C1N(Cc2ncc(F)cc2F)c2ccccc2C12COc1cc3c(cc12)OCCO3 (stereo not drawn)
Second: Cc1ccnc(Nc2nc(-c3ccc4c(c3)OCCO4)cs2)c1
The melting point of the first is lower: 220 to 222 °C for the first, 230 to 240 °C for the second.

Compared with `Cc1cc(-c2noc3cc(O)ccc23)ccc1O`, `Cc1ccc(-c2cc(-c3ccc(O)c(F)c3)nc3ccc(O)cc23)cc1` is lower in melting point: 233 to 235 °C for the first, 184 to 188 °C for the second.

First: COc1cc(Nc2nccc(-c3ccsc3)n2)cc(OC)c1OC
Second: COc1cc2c(cc1OC)N(C(=O)OCc1ccccc1)C(C)C(=CO)C2=O (stereo not drawn)
The melting point of the first is higher: 163 °C for the first, 106 to 110 °C for the second.

First: COc1cccc(/C=C/C(=O)N2CC(CCl)c3c2cc([N+](=O)[O-])c2ccccc32)c1 (stereo not drawn)
Second: Cc1cc(OCc2nc3ccccc3s2)ccc1[N+](=O)[O-]
The melting point of the first is higher: 200 °C for the first, 145 to 147 °C for the second.

Compared with `COc1cc(N2CCN(C[C@H](C)O)CC2)ccc1Nc1ncc2ccc(-c3ccccc3S(C)(=O)=O)n2n1`, `CN1C(=O)Cc2cnc(N3CCN(C(c4ccccc4)c4ccccc4)CC3)nc21` is lower in melting point: 98 to 100 °C for the first, 75 to 80 °C for the second.

First: Clc1ccc(Cc2nc(-c3ccccc3)nnc2NCCN2CCCCC2)cc1
Second: CCOC(=O)N=P(c1ccccc1)(c1ccccc1)c1ccccc1CN1CCCCC1
The melting point of the first is higher: 192 °C for the first, 121 to 123 °C for the second.

Compared with `CS(=O)(=O)c1ccc(-c2cc(C(=O)CCCCCO)nn2C2CCCCC2)cc1`, `CS(=O)(=O)c1ccc(-c2nnsc2-c2ccccc2)cc1` is higher in melting point: 125 to 127 °C for the first, 154 to 155 °C for the second.

First: O=C(CCCSc1nc[nH]n1)NC/C=C\COc1cc(CN2CCCCC2)ccn1
Second: COc1cc(Cn2cc(CCC(=O)O)c(-c3ccccc3)c2)cc(OCc2csc(-c3cnccn3)n2)c1
The melting point of the first is lower: 87 to 89 °C for the first, 111 to 112 °C for the second.

First: CCCCC(=N)NC(=O)Nc1ccccc1OCc1ccccc1
Second: O=C(NC(Cc1ccc(OCc2ccccc2)cc1)C(=O)O)c1cn2nc(SCc3ccccc3)ccc2n1 (stereo not drawn)
The melting point of the first is lower: 145 to 147 °C for the first, 178 to 179 °C for the second.

First: COCc1c(S(C)(=O)=O)ccc(C(=O)C2C(=O)CCCC2=O)c1C
Second: CCN1C(=O)c2cccc3c(S(C)(=O)=O)ccc1c23
The melting point of the first is lower: 192 to 198 °C for the first, 199 to 203 °C for the second.

Compared with `CN(C)C(=O)C1(N2CCCC2)CCNCC1`, `OC1(c2ccc(Cl)cc2)CCNC1` (stereo not drawn) is lower in melting point: 150 °C for the first, 79 to 80 °C for the second.

Compared with `Cc1cc(C)c(Oc2cccc(C#N)c2C#N)c(C)c1`, `COc1c(C)cccc1Oc1ccccc1` is lower in melting point: 151 to 153 °C for the first, 52 to 53 °C for the second.

First: Cc1cc(C)n(-c2nc(Nc3cc(C(F)(F)F)cc(C(F)(F)F)c3)c3ccccc3n2)n1
Second: CN(C(N)=S)c1ccc(-c2ncn(-c3ccc(OC(F)(F)F)cc3)n2)cc1
The melting point of the first is higher: 169 to 172 °C for the first, 142 to 152 °C for the second.

First: Nc1ccccc1-c1ccc(Br)cc1N
Second: O=c1cc(-c2cccc(Cl)c2)c2cc(Br)ccc2[nH]1
The melting point of the first is lower: 61 to 62 °C for the first, 105 °C for the second.

Compared with `O=P(O)(O)C(O)C(O)P(=O)(O)O` (stereo not drawn), `CC(C)(C)OC(=O)CN(CC(=O)O)CC(=O)OC(C)(C)C` is lower in melting point: 209 to 211 °C for the first, 76 to 82 °C for the second.

First: Cc1ccc(NC(=N)c2ccncc2)cc1
Second: Oc1ccccc1NC(=S)NCc1ccncc1
The melting point of the first is lower: 120 to 123 °C for the first, 180 °C for the second.

First: CC=C(C)c1ccc(-c2ccccc2F)cc1
Second: CN(C)C(=O)Sc1ccccc1C(=O)c1cccc(C#N)c1
The melting point of the first is lower: 83 to 85 °C for the first, 86 °C for the second.

First: NC1(c2ccccc2)C(=O)Nc2ccc(Cl)cc21 (stereo not drawn)
Second: CCOC(=O)C(=O)N(c1ccccc1)c1ccc(OC)cc1OC
The melting point of the first is higher: 230 to 235 °C for the first, 142 to 144 °C for the second.

Compared with `O=S(=O)(Cc1ccc(Cl)cc1)Cc1ccc(Cl)cc1`, `O=C(CCc1ccc(F)cc1)c1cccnc1F` is lower in melting point: 94 to 95 °C for the first, 73 to 74 °C for the second.

Compared with `CCC=C1SC(=O)N(CCCCOc2cccn3ccnc23)C1=O`, `Cc1ccccc1OCC(O)CNCCOc1ccc(C(N)=O)cn1` (stereo not drawn) is higher in melting point: 70 to 71 °C for the first, 139 to 141 °C for the second.

Compared with `CCCCCCOc1ccc(CCCCCCCCC(=O)N(C)O)cc1`, `CCCCCC(Sc1ccc(OC)cc1)C(=O)O` (stereo not drawn) is higher in melting point: 59 to 61 °C for the first, 90 to 95 °C for the second.

First: CNC(=O)c1ccc(N2CC(CNC(C)=S)OC2=O)cc1F (stereo not drawn)
Second: CNS(=O)(=O)c1cc2c(c(C(=O)NCC3CCCN3C)c1)OCCO2 (stereo not drawn)
The melting point of the first is lower: 176 to 177 °C for the first, 187 to 188 °C for the second.

Compared with `COc1ccc(C(=O)CCCCCBr)cc1OC`, `COc1cc2ncnc(Nc3ccc(F)c(Cl)c3)c2cc1OCCC1OCCO1` is higher in melting point: 38 to 40 °C for the first, 167 to 168 °C for the second.

First: CCOC(=O)c1c(SC2CCCCC2=O)nc2cc(Cl)c(F)cc2c1O (stereo not drawn)
Second: Cc1ccc2oc(=O)c(C(=O)Oc3cc(Cl)ccc3Cl)cc2c1
The melting point of the first is higher: 252 to 257 °C for the first, 175 to 179 °C for the second.

First: CCOc1c(N)c2c(c(OCC)c1OCC)C(C1c3c(cc4c(c3OC)OCO4)CCN1C)OC2=O (stereo not drawn)
Second: CCOC(=O)COc1cc(OC)cc2c1c1c(n2Cc2ccccc2)CCCC1C(N)=O (stereo not drawn)
The melting point of the first is higher: 180 to 182 °C for the first, 167 to 169 °C for the second.

Compared with `Cc1nc(N)nc(N)c1I`, `CC(C)(C)c1cc(C(=O)O)cc(I)c1O` is higher in melting point: 154 to 156 °C for the first, 178 °C for the second.

First: CC(C)(C)c1cc(SCCC(=O)NN)cc(C(C)(C)C)c1O
Second: CCC1=CC=CC(CC)(c2ccncc2)C1c1c(OC(=O)C(C)(C)C)n2n(c1=O)CCOCC2 (stereo not drawn)
The melting point of the first is lower: 107 to 110 °C for the first, 146 to 147 °C for the second.

Compared with `Nn1cc(C(=O)O)c(=O)c2cc3c(cc21)OCO3`, `COC(=O)C=CC1=CC2=CNC=C3CC(N(C)C)C(=C23)CO1` (stereo not drawn) is lower in melting point: 309 to 313 °C for the first, 168 to 170 °C for the second.

First: CC(C)(C)N(NC(=O)c1cnccn1)C(=O)c1ccccc1
Second: CC(C)NC(=O)NC(=O)c1ccnc([N+](=O)[O-])c1
The melting point of the first is higher: 181 to 183 °C for the first, 132 to 133 °C for the second.

Compared with `CCN(C)c1nc2sc3c(NCc4ccccn4)ncnc3c2c2c1CCC(C)(C)C2`, `CCOC(=O)Nc1cccc(Nc2c3cccc(C)c3nc3c(C(=O)NCCN(C)C)cccc23)c1C` is higher in melting point: 152 °C for the first, 182 to 183 °C for the second.

First: NS(=O)(=O)c1ccc(-c2noc(-c3cnn4c(C5CC5)cc(-c5ccc(Cl)cc5)nc34)n2)s1
Second: COc1ccc(NC(=O)NC2N=C(c3ccccc3)c3ccccc3N(C)C2=O)cc1 (stereo not drawn)
The melting point of the first is higher: 294 °C for the first, 261 to 263 °C for the second.

First: FC(F)C(F)(F)Sc1nc(-c2cccs2)c(-c2cccs2)[nH]1
Second: Clc1ccc2c(c1)ncc1ncsc12
The melting point of the first is lower: 162 to 164 °C for the first, 199 to 200 °C for the second.

`N#Cc1c(-c2ccc(OCc3ccccc3)cc2)n(Cc2ccc(OCCCl)cc2)c2cccc(OCc3ccccc3)c12` gave a melting point of 160 to 162 °C.
